# Like-named read-outs stand apart in the source and are kept apart here.
# Columns and labels:
# [1] = sealed
# Text: Salts prepared as in example 1 were dried, stored under the specified conditions without the addition of other substances and checked at regular intervals visually for discoloration: […]
# Lactic acid bacteria = details: Part I, 1 g/l in apple juice pH 4.5, 25° C.
# Clostridia = details: Part I, 1 g/l in apple juice pH 4.5, 25° C.
# Bacilli = details: Part I, 1 g/l in apple juice pH 4.5, 25° C.
# Thermophilic bacilli = details: Part I, 1 g/l in apple juice pH 4.5, 25° C.
# Acetic acid bacteria = details: Part I, 1 g/l in apple juice pH 4.5, 25° C.
# Yeasts = details: Part I, 1 g/l in apple juice pH 4.5, 25° C.
# Molds I = details: Part I, 1 g/l in apple juice pH 4.5, 25° C.
# Molds II = details: Part I, 1 g/l in apple juice pH 4.5, 25° C.
# Gram-negative bacteria = details: Part I, 1 g/l in apple juice pH 4.5, 25° C.
# Gram-positive bacteria = details: Part I, 1 g/l in apple juice pH 4.5, 25° C.
# [2] = 1 day after inoculation (1.5 × 10^4)
# [3] = 3 days after inoculation (1.5 × 10^4)
# [4] = 7 days after inoculation (1.5 × 10^4)
# [5] = 14 days after inoculation (1.5 × 10^4)
compound,measurement,setting,value
C/C=C/C=C/C(=O)[O-].CCC(=O)[O-].[Ca+2] [calcium propionate sorbate],Time after yellow-brown discoloration of a 1% strength aqueous solution,[1]; dark at 7° C.,>12 months/>12 months
same,Time after yellow-brown discoloration of the powder,[1]; dark at 7° C.,12 months/>12 months
same,Time after yellow-brown discoloration of a 1% strength aqueous solution,[1]; dark at 25° C.,>12 months/>12 months
same,Time after yellow-brown discoloration of the powder,[1]; dark at 25° C.,12 months/>12 months
same,Time after yellow-brown discoloration of a 1% strength aqueous solution,[1]; under sunlight at 7° C.,12 months/12 months
same,Time after yellow-brown discoloration of the powder,[1]; under sunlight at 7° C.,12 months/12 months
same,Time after yellow-brown discoloration of a 1% strength aqueous solution,[1]; under sunlight at 25° C.,12 months/12 months
same,Time after yellow-brown discoloration of the powder,[1]; under sunlight at 25° C.,12 months/12 months
same,"Number of surviving microorganisms per g of contaminated sample, Lactic acid bacteria",Lactic acid bacteria; 1 day after inoculation (1.9 × 10^4),4.0 × 10^4 CFU/g
same,"Number of surviving microorganisms per g of contaminated sample, Lactic acid bacteria",Lactic acid bacteria; 3 days after inoculation (1.9 × 10^4),3.2 × 10^5 CFU/g
same,"Number of surviving microorganisms per g of contaminated sample, Lactic acid bacteria",Lactic acid bacteria; 7 days after inoculation (1.9 × 10^4),2.4 × 10^3 CFU/g
same,"Number of surviving microorganisms per g of contaminated sample, Lactic acid bacteria",Lactic acid bacteria; 14 days after inoculation (1.9 × 10^4),130 CFU/g
same,"Number of surviving microorganisms per g of contaminated sample, Clostridia",Clostridia; 1 day after inoculation (1.4 × 10^4),1.3 × 10^3 CFU/g
same,"Number of surviving microorganisms per g of contaminated sample, Clostridia",Clostridia; 3 days after inoculation (1.4 × 10^4),800 CFU/g
same,"Number of surviving microorganisms per g of contaminated sample, Clostridia",Clostridia; 7 days after inoculation (1.4 × 10^4),310 CFU/g
same,"Number of surviving microorganisms per g of contaminated sample, Clostridia",Clostridia; 14 days after inoculation (1.4 × 10^4),55 CFU/g
same,"Number of surviving microorganisms per g of contaminated sample, Bacilli",Bacilli; [2],2.3 × 10^4 CFU/g
same,"Number of surviving microorganisms per g of contaminated sample, Bacilli",Bacilli; [3],1.4 × 10^3 CFU/g
same,"Number of surviving microorganisms per g of contaminated sample, Bacilli",Bacilli; [4],1.3 × 10^3 CFU/g
same,"Number of surviving microorganisms per g of contaminated sample, Bacilli",Bacilli; [5],50 CFU/g
same,"Number of surviving microorganisms per g of contaminated sample, Thermophilic bacilli",Thermophilic bacilli; 1 day after inoculation (1.3 × 10^4),1.1 × 10^3 CFU/g
same,"Number of surviving microorganisms per g of contaminated sample, Thermophilic bacilli",Thermophilic bacilli; 3 days after inoculation (1.3 × 10^4),<100 CFU/g
same,"Number of surviving microorganisms per g of contaminated sample, Thermophilic bacilli",Thermophilic bacilli; 7 days after inoculation (1.3 × 10^4),10 CFU/g
same,"Number of surviving microorganisms per g of contaminated sample, Thermophilic bacilli",Thermophilic bacilli; 14 days after inoculation (1.3 × 10^4),5 CFU/g
same,"Number of surviving microorganisms per g of contaminated sample, Acetic acid bacteria",Acetic acid bacteria; 1 day after inoculation (2.3 × 10^4),7.5 × 10^4 CFU/g
same,"Number of surviving microorganisms per g of contaminated sample, Acetic acid bacteria",Acetic acid bacteria; 3 days after inoculation (2.3 × 10^4),2.1 × 10^6 CFU/g
same,"Number of surviving microorganisms per g of contaminated sample, Acetic acid bacteria",Acetic acid bacteria; 7 days after inoculation (2.3 × 10^4),2.9 × 10^6 CFU/g
same,"Number of surviving microorganisms per g of contaminated sample, Acetic acid bacteria",Acetic acid bacteria; 14 days after inoculation (2.3 × 10^4),1.1 × 10^6 CFU/g
same,"Number of surviving microorganisms per g of contaminated sample, Yeasts",Yeasts; 1 day after inoculation (2.5 × 10^4),8.5 × 10^4 CFU/g
same,"Number of surviving microorganisms per g of contaminated sample, Yeasts",Yeasts; 3 days after inoculation (2.5 × 10^4),5.0 × 10^4 CFU/g
same,"Number of surviving microorganisms per g of contaminated sample, Yeasts",Yeasts; 7 days after inoculation (2.5 × 10^4),1.2 × 10^3 CFU/g
same,"Number of surviving microorganisms per g of contaminated sample, Yeasts",Yeasts; 14 days after inoculation (2.5 × 10^4),10 CFU/g
same,"Number of surviving microorganisms per g of contaminated sample, Molds I",Molds I; 1 day after inoculation (1.7 × 10^4),4.0 × 10^3 CFU/g
same,"Number of surviving microorganisms per g of contaminated sample, Molds I",Molds I; 3 days after inoculation (1.7 × 10^4),700 CFU/g
same,"Number of surviving microorganisms per g of contaminated sample, Molds I",Molds I; 7 days after inoculation (1.7 × 10^4),<100 CFU/g
same,"Number of surviving microorganisms per g of contaminated sample, Molds I",Molds I; 14 days after inoculation (1.7 × 10^4),<10 CFU/g
same,"Number of surviving microorganisms per g of contaminated sample, Molds II",Molds II; [2],1.1 × 10^3 CFU/g
same,"Number of surviving microorganisms per g of contaminated sample, Molds II",Molds II; [3],80 CFU/g
same,"Number of surviving microorganisms per g of contaminated sample, Molds II",Molds II; [4],50 CFU/g
same,"Number of surviving microorganisms per g of contaminated sample, Molds II",Molds II; [5],<10 CFU/g
same,"Number of surviving microorganisms per g of contaminated sample, Gram-negative bacteria",Gram-negative bacteria; 1 day after inoculation (2.4 × 10^4),3.5 × 10^4 CFU/g
same,"Number of surviving microorganisms per g of contaminated sample, Gram-negative bacteria",Gram-negative bacteria; 3 days after inoculation (2.4 × 10^4),1.7 × 10^3 CFU/g
same,"Number of surviving microorganisms per g of contaminated sample, Gram-negative bacteria",Gram-negative bacteria; 7 days after inoculation (2.4 × 10^4),900 CFU/g
same,"Number of surviving microorganisms per g of contaminated sample, Gram-negative bacteria",Gram-negative bacteria; 14 days after inoculation (2.4 × 10^4),<10 CFU/g
same,"Number of surviving microorganisms per g of contaminated sample, Gram-positive bacteria",Gram-positive bacteria; 1 day after inoculation (2.6 × 10^4),7.0 × 10^4 CFU/g
same,"Number of surviving microorganisms per g of contaminated sample, Gram-positive bacteria",Gram-positive bacteria; 3 days after inoculation (2.6 × 10^4),7.0 × 10^3 CFU/g
same,"Number of surviving microorganisms per g of contaminated sample, Gram-positive bacteria",Gram-positive bacteria; 7 days after inoculation (2.6 × 10^4),400 CFU/g
same,"Number of surviving microorganisms per g of contaminated sample, Gram-positive bacteria",Gram-positive bacteria; 14 days after inoculation (2.6 × 10^4),<10 CFU/g
same,"Antimicrobial activity (words, general statement)",all microorganisms used,inhibited particularly well
same,Preservative action against the microorganisms used,"all microorganisms used; 1 g/l in apple juice pH 4.5, up to 14 days","acts well and persistently against all microorganisms used, except for bacilli"
same,Preservative action compared with the single salts,"all microorganisms used; same concentration, 1 g/l in apple juice pH 4.5","acts surprisingly better than potassium sorbate (used at the same concentration), in particular against lactic acid bacteria, thermophilic bacilli, yeasts and some molds (molds group II)"
